# Laboratory results taken from a melting point compilation (Tetko et al.; mined from patent text by program, amines drawn as free bases though some values may be those of a salt).
row,SMILES,melting point
1,CC(C)Cn1nc(O)nc1Cl,84 to 86 °C
2,CC(=O)N1CCN(CC(=O)OC2c3ccccc3C(=O)N2c2ccc3ccc(Cl)nc3n2)CC1 (stereo not drawn),192 °C
3,Cn1nc(C(F)(F)F)nc1NCCCCOc1cccc(CN2CCCCC2)c1,70 °C
4,O=C(O)C(CCCc1cccc2ccccc12)c1ccccc1 (stereo not drawn),99 to 100 °C
5,Cc1nn(-c2ccc([N+](=O)[O-])cc2F)c(=O)[nH]1,211 to 212 °C
6,COC(=O)c1cccc(-c2c(C)cc(OC3CCS(=O)(=O)CC3)cc2C)c1,180 °C
7,CCc1cccc(C)c1CNc1cc(C(=O)N(C)C)nc2c(CO)c(C)[nH]c12,280 °C
8,CCOC(=O)c1cc2c(=O)n(-c3ccccc3)c3ccccc3n2c1,256 to 259 °C
9,Cc1nc[nH]c1CSCCCNC(=N)N,156 to 158 °C
10,NC(=O)c1nccn1C1Cc2cc(Cl)ccc2C1=O (stereo not drawn),240 °C
11,CC1(C)OC(=O)Nc2c(F)cc(-c3ccc(F)c(Cl)c3)cc21,246 to 248 °C
12,CCOC(=O)c1cc2c(cn1)[nH]c1ccc([N+](=O)[O-])c(OCc3ccccc3)c12,254 °C
13,COc1cc(Oc2cccc(C(F)(F)F)c2)nc(C(=O)NN=C2CCCC2)c1,146 to 148 °C
14,CCOc1ccccc1C(=O)c1oc2ccc(Cl)cc2c1N,114 to 115 °C
15,O=C1CCCN1c1cccc(-c2ccnc3c([N+](=O)[O-])cnn23)c1,226 to 228 °C
16,CCCCc1oc2ccccc2c1C(=O)Nc1ccc2c(Br)c(OCc3nn[nH]n3)ccc2c1,242 to 245 °C
17,CCn1ncc2c(NCc3ccncc3)c3ccccc3nc21,191 to 192 °C
18,CC(=O)NCCc1ccc(C(=O)c2cccc(F)c2)cc1,78 °C
19,OCCOc1ccc(C=Cc2ncn(CC(O)(Cn3cncn3)c3ccc(F)cc3F)n2)cc1 (stereo not drawn),152 to 155 °C
20,Cc1cc(C)c(Nc2nc(C)ccc2S(=O)(=O)c2ccc(OCc3cccc(F)c3F)cc2)c(C)c1,136 to 138 °C
21,Cc1ccc(Cl)c(N)c1C(N)=O,124 to 128 °C
22,COc1ccc(Nc2ccccc2)c2ccccc12,108 to 110 °C
23,"CC(C)C(C)(N)C(N)=O (single isomer, unassigned; (+))",74.5 to 76 °C
24,CCC(=O)Nc1cccc(-c2ccc(Cl)nn2)c1,184 to 187 °C
25,CCOC(=O)c1nnc(-c2ccc(S(C)=O)cc2)o1 (stereo not drawn),129 to 131 °C

row,SMILES,melting point
1,CCOc1ccc2c(c1)CCc1c(C#N)cccc1S2,124 to 126 °C
2,O=C(COc1cc(-c2ccccc2)nc2ccccc12)N1CCCC1,135 °C
3,CN1N=C2c3cc(F)ccc3SCC2CC1=O (stereo not drawn),125 to 128 °C
4,O=C(O)c1cn(-c2ccc(F)cc2F)c2cc(-c3ccncc3)ccc2c1=O,291 to 292 °C
5,N#Cc1ccc(OCc2cnsc2)cc1F,102 to 105 °C
6,Fc1ccc(N2CCN(CCCOc3ccccc3-c3nnco3)CC2)cc1,102 to 103 °C
7,CCCCCCCCCCOc1ccc(C(=O)Oc2ccc(OC(=O)[C@@H]3O[C@@H]3CCC)cc2)cc1Cl,66.4 °C
8,CCOC(=S)c1cc(Cl)c(C)c(-c2cc(C)no2)c1C,79 to 82 °C
9,CCOC(=O)NNC(=O)NCCCl,118 to 120 °C
10,N#CCC(=O)NCc1ccccn1,82 to 83 °C
11,O=C(c1sc(NC(=O)N2CCOCC2)nc1-c1ccco1)C1CCCC1,108 to 110 °C
12,CN1CCN(c2cc3ccccc3cn2)CC1,93 to 94 °C
13,O=C(O)C(c1ccc(Cl)cc1)C1CC1 (stereo not drawn),95 to 96 °C
14,CCCC(=O)N(Cc1ccc(-c2ccccc2-c2nc(=O)o[nH]2)cc1)c1sc(C)cc1C(=O)OC,156 to 157 °C
15,CS(=O)c1ccccc1-c1nc2ncccc2o1 (stereo not drawn),154 to 156 °C
16,Cc1nn(-c2c(Cl)cc(C(F)(F)F)cc2Cl)c(C)c1C=NC(C#N)=C(N)C#N,237 to 240 °C
17,O=C1NC(=O)c2c1cc1ccc3c(c1c2-c1ccncc1)OCO3,299 to 302 °C
18,Cc1cc(F)ccc1CCC(=O)O,112 to 113 °C
19,CCCC1CCCN(C(=O)C2Cc3ccccc3N2c2ccc(=O)n(C)n2)C1 (stereo not drawn),106 to 110 °C
20,CC(C)(C)OC(=O)Nc1cccc(C(=O)OCC#N)c1,118 to 119 °C
21,CCCCCCCCCCCCCCCCCCOc1cc(OCCCBr)cc(N(CC(=O)OC)CC(=O)OC)c1,67 to 69 °C
22,CCN(c1nc(C)cc(C(=O)c2ccc(F)cc2)n1)c1ccc(C(C)C)cc1Br,70 °C
23,CCCCCCN(C(=O)Nc1ccc(C(=O)O)cc1)c1ccc2c(c1)C(C)(C)CCC2(C)C,177 °C
24,FC(F)(F)c1n[nH]c(-c2nc3ccccc3s2)n1,254 °C
25,CCC12C=C(C(=O)OC)n3c4c(c5ccccc53)CCN(CCC1)C42 (stereo not drawn),160 to 162 °C

row,SMILES,melting point
1,O=C(NCCCn1cncn1)Nc1cccc(C(F)(F)F)c1,97 to 99 °C
2,CCCN(CCC)C(=O)Cc1ccccc1Nc1c(Cl)cccc1Cl,84 to 86 °C
3,CCCCNc1cncc(C(=NCCc2ccccc2Cl)NC#N)c1,122 °C
4,"CC1CC(=O)NN=C1c1ccc(NN=C(C#N)C#N)cc1 (single isomer, unassigned; (+))",210 to 214 °C
5,CS(=O)(=O)c1ccc(-c2oc(CO)cc(=O)c2Oc2ccc(Cl)cc2)cc1,227 °C
6,O=c1[nH]c(=O)n(C2CC(F)C(CF)O2)cc1C=CBr (stereo not drawn),177 to 180 °C
7,Cn1nc(Oc2ccc([N+](=O)[O-])c(N)c2)cc1C(F)(F)F,91 to 92 °C
8,NC(=O)N(O)CC#Cc1cccc(Oc2cccnc2)c1,107 to 110 °C
9,BrCc1ccc2ccccc2n1,33 to 37 °C
10,NC(=O)c1ccc(Br)c(OC(F)F)c1Br,186 °C
11,O=C(O)Cn1cc(Cc2cccc(OCc3ccc4ccccc4n3)c2)c2ccccc21,151 to 159 °C
12,CCOC(=O)C(CC)Sc1nc2c([nH]1)c(=O)n(C)c(=O)n2C (stereo not drawn),175 °C
13,CCOC(=O)c1cc2cc(OCCNC[C@H](O)COc3ccccc3)ccc2s1,99 to 100 °C
14,COc1ccc(S(=O)(=O)N2CCC[C@H]2C(=O)N2CCN(C(=O)c3ccc(C=NN)cc3)CC2)c(OC)c1COc1cccc2c(C)cc(C)nc12,136 °C
15,CN(C)CCCc1c[nH]c(-c2ccc(F)cc2)c1-c1ccncc1,177 to 179 °C
16,CCOCc1nc2c(N)nc3ccccc3c2n1CC1(OCCS(C)(=O)=O)CCNCC1,212 to 214 °C
17,O=S(=O)(c1ccccc1)N1CCC(Nc2nc(OCC(F)(F)F)nc(N3CCCC3)n2)CC1,212 to 213 °C
18,CC1=C(CC(=O)N(C)O)c2cc(F)ccc2/C1=C\c1ccc(S(C)=O)cc1 (stereo not drawn),156 to 160 °C
19,CC(=O)N1CCC(C2=C(C#N)C(c3cccc4nonc34)c3c[nH]nc3N2)CC1 (stereo not drawn),248 °C
20,Cc1cc(C(O)(c2ccc3c(cnn3-c3ccc(F)cc3)c2)C(F)(F)F)cn(C)c1=O (stereo not drawn),> 200 °C
21,CCOC(=O)c1cc(CC)sc1Nc1cc(F)cc(F)c1N,106 °C
22,O=C(O)c1cn(C2CC2)c2cc(-c3ccncc3)ccc2c1=O,278 to 281 °C
23,CS(=O)c1ccc(-c2nn3c(c2-c2ccncc2)NCCC3)cc1 (stereo not drawn),201 to 202 °C
